Reference: patent publication US20070155803A1, “Protease inhibitors” (ProZymex A/S, priority 2003, published 2007)
pIC50: −log10 of the molar value. Square brackets hold non-standard residues; d marks the D form. Peptide text beside a SMILES is read from it. Phe(3-F) = N[C@@H](Cc1cccc(F)c1)C(=O)O; hPhe = N[C@@H](CCc1ccccc1)C(=O)O; Abu = CC[C@H](N)C(=O)O; azaGly = NNC(=O)O

Test system: β-tryptase
Assay: Tryptase assay
Type: biochemical, human
Method: Using this assay, the selectivity of a compound of the invention for hDPP-I over β-tryptase was determined, using a fluorogenic substrate.
0.1 M HEPES buffer (pH 7.5) with 0.5 M NaCl.
Rh-Skin β-tryptase (Promega # G7061) was diluted to a final stock solution of 0.08 μg/μL in assay buffer.
Rh-lung β-tryptase (Promega # G5631) was diluted to a final stock solution of 0.08 μg/μL in assay buffer.
Z-ARG-AMC*HCl (BACHEM I1130; 10 mg) was dissolved in 1 mL DMSO, giving a 20 mM solution. Km was determined to be >400 μM.
The assay was performed in 96-well plates. 85 μl assay buffer was added to the well followed by 5 μL enzyme stock. Then 5 μL substrate was added, and subsequently 5 μL 4% DMSO in assay buffer (control) or a compound of the invention (10 μM in the assay) The excitation wavelength was 380 nm, and the emission was measured at 460 nm for 10-20 minutes at […] Each measurement was mad in duplicate. In the software (SOFTmax Pro) used for data collection from the fluorometer (Molecular Devices: Gemini XS), it was ensured that the measured slopes were linear (R^2>0.99).
Data were exported to GraphPad Prism and nonlinear regression was performed using the option Sigmoidal dose-response (variable slope).

Compound: CC[C@H](N)C(=O)NNC(=O)N[C@@H](CCc1ccccc1)C(=O)N[C@@H](Cc1cccc(F)c1)C(N)=O [Example 11, 1-(2S-2-Aminobutanoyl)-4-[2S-N-[2S-3-(m-fluorophenyl)propan-2-yl-amide]-4-phenylbutan-2-yl-amide]semicarbazide] (H-[Abu][azaGly][hPhe][Phe(3-F)]-NH2)
- Inhibition of tryptase (in words): does not inhibit
- pIC50 (β-tryptase, 10 μM cutoff, read-out: Secondary enzymatic screening (10 μM cutoff or IC50) Tryptase): < 5.00
